Experiments:
hEP1 = target: T1, hEP1 (Homo sapiens, UniProt P34995); experiment: FLIPR calcium signal, EP1; format: cell-based; conditions: HEK-293(EBNA)
T1 construct: expressed in transfected cells
T1 sequence (P34995 1-402): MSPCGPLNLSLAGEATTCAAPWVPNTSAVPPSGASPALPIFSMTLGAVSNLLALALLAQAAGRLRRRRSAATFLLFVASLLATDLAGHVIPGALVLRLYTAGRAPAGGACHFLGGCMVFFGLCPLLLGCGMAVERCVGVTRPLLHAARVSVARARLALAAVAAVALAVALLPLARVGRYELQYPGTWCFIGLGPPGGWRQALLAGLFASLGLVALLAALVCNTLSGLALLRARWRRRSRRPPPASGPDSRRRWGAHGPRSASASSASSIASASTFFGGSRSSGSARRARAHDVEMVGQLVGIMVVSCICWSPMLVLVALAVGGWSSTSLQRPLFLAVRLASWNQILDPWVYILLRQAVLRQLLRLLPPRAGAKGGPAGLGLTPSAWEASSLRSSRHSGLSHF
Procedure: (§1) HEK-293(EBNA) cells, stably expressing one type or subtype of recombinant human prostaglandin receptors (prostaglandin receptors expressed: hDP/Gqs5; hEP1; hEP2/Gqs5; hEP3A/Gqi5; hEP4/Gqs5; hFP; hIP; hTP), were cultured in 100 mm culture dishes in high-glucose DMEM medium containing 10% fetal bovine serum, 2 mM 1-glutamine, 250 μg/ml geneticin (G418) and 200 μg/ml hygromycin B as selection markers, and 100 units/ml penicillin G, 100 μg/ml streptomycin and 0.25 μg/ml amphotericin B.
(§2) Cells were seeded at a density of 5×10^4 cells per well in Biocoat® Poly-D-lysine-coated black-wall, clear-bottom 96-well plates (Becton-Dickinson) and allowed to attach overnight in an incubator at 37° C. Cells were then washed two times with HBSS-HEPES buffer (Hanks Balanced Salt Solution without bicarbonate and phenol red, 20 mM HEPES, pH 7.4) using a Denley Cellwash plate washer (Labsystems). After 45 minutes of dye-loading in the dark, using the calcium-sensitive dye Fluo-4 AM at a final concentration of 2 μM, plates were washed four times with HBSS-HEPES buffer to remove excess dye leaving 100 μl in each well. Plates were re-equilibrated to 37° C. for a few minutes.
(§3) Cells were excited with an Argon laser at 488 nm, and emission was measured through a 510-570 nm bandwidth emission filter (FLIPR™, Molecular Devices, Sunnyvale, Calif.). Drug solution was added in a 50 μl volume to each well to give the desired final concentration. The peak increase in fluorescence intensity was recorded for each well. On each plate, four wells each served as negative (HBSS-HEPES buffer) and positive controls (standard agonists: BW245C (hDP); PGE2 (HEP1; hEP2/Gqs5; hEP3A/Gqi5; hEP4/Gqs5); PGF2α (hFP); carbacyclin (hIP); U-46619 (hTP), depending on receptor). The peak fluorescence change in each drug-containing well was then expressed relative to the controls.
(§4) Compounds were tested in a high-throughput (HTS) or concentration-response (CoRe) format. In the HTS format, forty-four compounds per plate were examined in duplicates at a concentration of 10^−5 M. To generate concentration-response curves, four compounds per plate were tested in duplicates in a concentration range between 10^−5 and 10^−11 M. The duplicate values were averaged. In either, HTS or CoRe format each compound was tested on at least 3 separate plates using cells from different passages to give an n≧3.

hEP2/Gqs5 = target: T2, hEP2/Gqs5 (Homo sapiens, UniProt P43116); experiment: FLIPR calcium signal, EP2; format: cell-based; conditions: HEK-293(EBNA), value outside parentheses, read-out: Ca2+ Signal-EC50 (nM) EP2
T2 construct: expressed in transfected cells
T2 sequence (P43116 whole entry): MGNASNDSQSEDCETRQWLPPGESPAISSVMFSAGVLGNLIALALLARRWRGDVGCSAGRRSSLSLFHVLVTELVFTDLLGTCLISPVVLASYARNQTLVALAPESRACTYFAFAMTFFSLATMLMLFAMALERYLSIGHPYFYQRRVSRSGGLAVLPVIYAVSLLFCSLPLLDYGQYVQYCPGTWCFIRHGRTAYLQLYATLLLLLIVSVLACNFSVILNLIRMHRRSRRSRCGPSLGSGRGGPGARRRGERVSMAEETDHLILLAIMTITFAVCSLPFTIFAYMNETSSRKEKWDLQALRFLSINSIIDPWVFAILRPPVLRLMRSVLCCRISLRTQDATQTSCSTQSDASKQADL
Procedure: as §1, §2, §3, §4

EP2 = EP2 (Homo sapiens, UniProt P43116); experiment: Competition binding, [3H]PGE2, EP2 (Ki); design: expressed in transfected cells; membranes or whole cells; conditions: HEK 293 cells stably expressing human EP2, [3H]PGE2
Sequence of EP2 (P43116 whole entry): as above
Procedure: Competition binding experiments were performed in a medium containing Hank's balanced salt solution, Hepes 20 mM, pH 7.3, membranes (˜60 μg protein) or 2×10^5 cells from HEK 293 cells stably expressing human EP2 receptors, [^3H]PGE2 (10 nM) and various concentrations of test compounds in a total volume of 300 μl. Reaction mixtures were incubated at 23° C. for 60 min, and were filtered over Whatman GF/B filters under vacuum. Filters were washed three times with 5 ml ice-cold buffer containing 50 mM Tris/HCl (pH 7.3). Non-specific binding was estimated in the presence of excess unlabeled PGE2 (10 μM). Binding data fitted to the binding model for a single class of binding sites, using nonlinear regression analysis. IC50 values thus obtained were converted to Ki using the equation of Ki=(IC50/(1+[L]/KD) where [L] represents PGE2 concentration (10 nM) and KD the dissociation constant for [^3H]PGE2 at human EP2 receptors (40 nM).
HEK-293 cells stably expressing the human or feline FP receptor, or EP1, EP2, or EP4 receptors were washed with TME buffer, scraped from the bottom of the flasks, and homogenized for 30 sec using a Brinkman PT 10/35 polytron. TME buffer was added to achieve a final 40 ml volume in the centrifuge tubes (the composition of TME is 100 mM TRIS base, 20 mM MgCl2, […]; 10N HCl is added to achieve a pH of 7.4).
The cell homogenate was centrifuged at 19000 r.p.m. for 20 min at 4° C using a Beckman Ti-60 rotor. The resultant pellet was resuspended in TME buffer to give a final 1 mg/ml protein concentration, as determined by Biorad assay. Radioligand binding competition assays vs. [^3H-]17-phenyl PGF2α. (5 nM) were performed in a 100 μl volume for 60 min. Binding reactions were started by adding plasma membrane fraction. The reaction was terminated by the addition of 4 ml ice-cold TRIS-HCl buffer and rapid filtration through glass fiber GF/B filters using a Brandel cell harvester. The filters were washed 3 times with ice-cold buffer and oven dried for one hour.
[^3H-] PGE2 (specific activity 180 Ci mmol) was used as the radioligand for EP receptors. [^3H] 17-phenyl PGF2α, was employed for FP receptor binding studies. Binding studies employing EP1, EP2, EP4 and FP receptors were performed in duplicate in at least three separate experiments. A 200 μl assay volume was used. Incubations were for 60 min at 25° C. and were terminated by the addition of 4 ml of ice-cold 50 mM TRIS-HCl, followed by rapid filtration through Whatman GF/B filters and three additional 4 ml washes in a cell harvester (Brandel). Competition studies were performed using a final concentration of 5 nM [^3H]-PGE2, or 5 nM [^3H] 17-phenyl PGF2αand non-specific binding determined with 10^−5M of unlabeled PGE2, or 17-phenyl PGF2α, according to receptor subtype studied.

SMILES	Ca2+ Signal-EC50 (nM) EP1 (hEP1)	EC50 (hEP2/Gqs5) [nM]	Ki (EP2) [nM]
O=C(O)CCCCCC[C@@H]1[C@@H](c2ccc(C(O)CCC3CCCCC3)cc2)[C@H](O)C[C@H]1Cl (stereo partly drawn) [Entry 16, 7-{(1R,2S,3R,5R)-5-Chloro-2-[4-(3-cyclohexyl-1-hydroxy-propyl)-phenyl]-3-hydroxy-cyclopentyl}-heptanoic acid]	not active	2330	1290
CCCCCC(O)C(C)(C)c1ccc([C@@H]2[C@@H](C/C=C\CCCC(=O)O)[C@H](Cl)C[C@H]2O)cc1 (stereo partly drawn) [Entry 31, (Z)-7-{(1R,2S,3R,5R)-5-Chloro-3-hydroxy-2-[4-(2-hydroxy-1,1-dimethyl-heptyl)-phenyl]-cyclopentyl}-hept-5-enoic acid]	not active	544	182
O=C(O)CCC/C=C\C[C@@H]1[C@@H](c2ccc(C(O)CCc3ccccc3)cc2)[C@H](O)C[C@H]1Cl (stereo partly drawn) [Entry 23, (Z)-7-{(1R,2S,3R,5R)-5-Chloro-3-hydroxy-2-[4-(1-hydroxy-3-phenyl-propyl)-phenyl]-cyclopentyl}-hept-5-enoic acid]	not active	548	1130
CCCCCC(O)c1cccc([C@@H]2[C@@H](C/C=C\CCCC(=O)O)[C@H](Cl)C[C@H]2O)c1 (stereo partly drawn) [Entry 29, (Z)-7-{(1R,2S,3R,5R)-5-Chloro-3-hydroxy-2-[3-(1-hydroxy-hexyl)-phenyl]-cyclopentyl}-hept-5-enoic acid]	not active	119	1390
CCCCCCc1ccc([C@@H]2[C@@H](C/C=C\CCCC(=O)O)[C@H](Cl)C[C@H]2O)cc1 [Entry 33, (Z)-7-[(1R,2S,3R,5R)-5-Chloro-2-(4-hexyl-phenyl)-3-hydroxy-cyclopentyl]-hept-5-enoic acid]	not active	26	83
O=C(O)CCC/C=C\C[C@@H]1[C@@H](c2ccc(C(O)Cc3ccccc3)cc2)[C@H](O)C[C@H]1Cl (mixture of isomers) [Entry 21, (Z)-7-{(1R,2S,3R,5R)-5-Chloro-3-hydroxy-2-[4-(1-hydroxy-2-phenyl-ethyl)-phenyl]-cyclopentyl}-hept-5-enoic acid]	not active	9	77
CCCCCC(O)c1ccc([C@@H]2[C@@H](CCCCCCC(=O)O)[C@H](Cl)C[C@H]2O)cc1 (stereo partly drawn) [Entry 14, 7-{(1R,2S,3R,5R)-5-Chloro-3-hydroxy-2-[4-(1-hydroxy-hexyl)-phenyl]-cyclopentyl}-heptanoic acid]	not active	28	287
O=C(O)CCC/C=C\C[C@@H]1[C@@H](c2ccc(C(O)CCC3CCCCC3)cc2)[C@H](O)C[C@H]1Cl (stereo partly drawn) [Entry 15, (Z)-7-{(1R,2S,3R,5R)-5-Chloro-2-[4-(3-cyclohexyl-1-hydroxy-propyl)-phenyl]-3-hydroxy-cyclopentyl}-hept-5-enoic acid]	not active	495	260

Further lines, results first:

Ca2+ Signal-EC50 (nM) EP1 (hEP1)	EC50 (hEP2/Gqs5) [nM]	Ki (EP2) [nM]	SMILES
not active	53	804	CCCCCC(O)c1ccc([C@@H]2[C@@H](C/C=C\CCCC(=O)O)[C@H](F)C[C@H]2O)cc1 (mixture of isomers) [Entry 8, (Z)-7-{(1R,2S,3R,5R)-5-Fluoro-3-hydroxy-2-[4-(1-hydroxy-hexyl)-phenyl]-cyclopentyl}-hept-5-enoic acid]
not active	242	3950	CCCCCC(O)c1ccc([C@@H]2[C@@H](C/C=C\CCCC(=O)O)[C@@H](Cl)C[C@H]2O)cc1 (stereo partly drawn) [Entry 9, (Z)-7-{(1R,2S,3R,5S)-5-Chloro-3-hydroxy-2-[4-(1-hydroxy-hexyl)-phenyl]-cyclopentyl}-hept-5-enoic acid]
not active	36	209	CCCCCC(O)c1ccc([C@@H]2[C@@H](C/C=C\CCCC(=O)O)[C@H](Cl)C[C@H]2O)cc1 (single isomer, unassigned) [Entry 12]
not active	11	73	CCCCCC(O)c1ccc([C@@H]2[C@@H](C/C=C\CCCC(=O)O)[C@H](Cl)C[C@H]2O)cc1 (single isomer, unassigned) [Entry 13]
not active	154	1660	CCCC(O)c1ccc([C@@H]2[C@@H](C/C=C\CCCC(=O)O)[C@H](Cl)C[C@H]2O)cc1 (stereo partly drawn) [Entry 26, (Z)-7-{(1R,2S,3R,5R)-5-Chloro-3-hydroxy-2-[4-(1-hydroxy-butyl)-phenyl]-cyclopentyl}-hept-5-enoic acid]
not active	16	12	CCCCCC(O)c1ccc([C@@H]2[C@@H](C/C=C\CCCC(=O)O)[C@H](Cl)C[C@@H]2O)cc1 (stereo partly drawn) [Entry 34, (Z)-7-{(1R,2S,3S,5R)-5-Chloro-3-hydroxy-2-[4-(1-hydroxy-hexyl)-phenyl]-cyclopentyl}-hept-5-enoic acid]
not active	–	589	CCCCC(O)c1ccc([C@@H]2[C@@H](C/C=C\CCCC(=O)O)[C@H](Cl)C[C@H]2O)cc1 (mixture of isomers) [Entry 27, (Z)-7-{(1R,2S,3R,5R)-5-Chloro-3-hydroxy-2-[4-(1-hydroxy-pentyl)-phenyl]-cyclopentyl}-hept-5-enoic acid]

Reference: patent publication US7585895B2, “Therapeutic substituted cyclopentanes” (Allergan, Inc., priority 2005, dated 2009)
